Measured values from the NIST ThermoML archive (doi:10.1021/acs.jced.7b01135).
Numbers after ± are expanded uncertainties. Blank lines part the entries; values can stand above or below the compound they belong to.

Tests used:
[1] = refractive index (Na D-line) (dimensionless); settings: 298.2 K; 101.33 kPa; Liquid; Standard Abbe refractometry
[2] = refractive index (Na D-line) (dimensionless); wn = mass fraction of the nth substance listed; settings: 101.3 kPa, Liquid, Standard Abbe refractometry
[3] = wn = mass fraction of the nth substance listed; settings: 298.2 K; 101.3 kPa; Liquid; Pycnometric method; w1 = 0.2
[4] = 298.2 K; 101.33 kPa; Liquid; Pycnometric method

refractive index [1]: 1.3324 ± 0.012
Compound: O [water]

refractive index ([2]; 298.2 K, w2 = 0.9975): 1.33545 ± 0.012 | refractive index ([2]; 308.2 K, w2 = 0.9938): 1.33463 ± 0.012 | refractive index ([2]; 318.2 K, w2 = 0.9901): 1.33317 ± 0.012 | refractive index ([2]; 328.2 K, w2 = 0.9864): 1.33224 ± 0.012
Compound: CCCCCCCCCCO [decan-1-ol] + O

mass density [3]: 1085.86 ± 2 kg/m3 | refractive index ([2]; 298.2 K, w1 = 0.2): 1.356 ± 0.012
Compound: O=C(O)CC(O)(CC(=O)O)C(=O)O [citric acid] + O

mass density [4]: 826.86 ± 2 kg/m3 | refractive index [1]: 1.4346 ± 0.012
Compound: CCCCCCCCCCO [decan-1-ol]
